Several values for one entry are separate records, joined by “and”; a condition that tells them apart may be missing. Identical values can stand only once. Entries after “also recorded” stand apart in the source; their conditions may differ. Like-named read-outs stand apart in the source and are kept apart here.
Assays:
[1] = test system: 3T3 mouse embryonic fibroblast cells; test: In vitro toxicity on normal cells (proliferation, apoptosis); assay type: cell-based; details: 10 μM
Procedure: (§1) The 3T3 mouse embryonic fibroblast cells and B16-F1 melanoma cells were used as the model to study in vitro toxicity of WYC-209 and WYC-331 respectively. The effect of compound WYC-209 and WYC-331 on the proliferation of 3T3 mouse embryonic fibroblast cells and B16-F1 melanoma cells were studied at a concentration of 10 μM.

[2] = test system: tumor-repopulating cells of B16-F1 melanoma; test: Inhibitory activity on proliferation of tumor-repopulating cells (TRCs) of B16-F1 melanoma in 3D fibrin gel; assay type: cell-based; details: for IC50: colony tumor volume, read-out: IC50 of inhibition on TRCs of B16-F1 melanoma/μM
[3] = test system: tumor-repopulating cells of A2780 ovarian cancer; test: Inhibition of proliferation of tumor-repopulating cells, colony tumor volume in 3D fibrin gel; assay type: cell-based, human; details: A2780 TRCs
Procedure: (§2) Therefore, we further studied the inhibitory activity of this compound against tumor-repopulating cells of six other kinds of human tumor, including A549 lung cancer cell, MCF-7 breast cancer cell, MDA-MB-435S melanoma cell, A2780 ovarian cancer cell, Hs-746T gastric cancer cell, MDA-MB-231 breast cancer cell.
(§3) The above cancer cells were incubated with 3D fibrin gel medium (90-Pa) for 5 days, and the desired tumor-repopulating cells were screened. Subsequently, the culture medium was respectively treated with collagenase and neutral protease II, and the tumor-repopulating cells of B16-F1 melanoma were released, then the obtained repopulating cells were transferred to a freshly prepared medium to be resuspended and maintained at single-cell state. The tumor-repopulating cells of individual tumor were inoculated in 3D fibrin gel medium (90-Pa) for 5 days, with 0.1% DMSO as the negative control group (represented by DMSO group in FIGS. 3-8), the drug-free group as vehicle control group (represented by None group in FIGS. 3-8), and the study was performed by beginning administrating on the day 0 and the 3rd day respectively, and the colony tumor volume was measured and calculated.
as §3, with “The above human tumor cells were” for “The above cancer cells were”, “cells of B16-F1 melanoma were inoculated” for “cells of individual tumor were inoculated”, “group in FIG. 9), the drug-free” for “group in FIGS. 3-8), the drug-free”, “measured and calculated, beginning administrating from the 3rd day at a concentration of 0.1 μM, 1.0 μM, and 10 μM respectively, the colony tumor volume was measured and calculated.” for “measured and calculated.”

[4] = test system: tumor-repopulating cells of MDA-MB-231 breast cancer; test: as above; assay type: cell-based, human; details: MDA-MB-231 TRCs
Procedure: as §2, §3
as §3, with “The above human tumor cells were” for “The above cancer cells were”, “cells of B16-F1 melanoma were inoculated” for “cells of individual tumor were inoculated”, “group in FIG. 9), the drug-free” for “group in FIGS. 3-8), the drug-free”, “measured and calculated, beginning administrating from the 3rd day at a concentration of 0.1 μM, 1.0 μM, and 10 μM respectively, the colony tumor volume was measured and calculated.” for “measured and calculated.”

[5] = test system: B16-F1 melanoma cells; test: In vitro effect on B16-F1 melanoma cells (proliferation, apoptosis) in the toxicity study; assay type: cell-based; details: 10 μM
Procedure: as §1

[6] = test system: B16-F1 metastatic melanoma in the lung; test: B16-F1 metastatic melanoma in the lung model, 30,000 tumor-repopulating cells via tail vein (WYC-209); assay type: in vivo, mice (C57BL/6); details: for mice that suffered pulmonary metastatic melanoma: 30th day, 8 mice
Procedure: This experiment was performed to study whether WYC-209 could inhibit the metastasis of melanoma to the lung thus prevent secondary tumorigenesis. The B16-F1 cells were incubated with 3D fibrin gel medium (90-Pa) for 5 days, and the desired tumor-repopulating cells were screened. Subsequently, the culture medium was respectively treated with collagenase and neutral protease II, and the tumor-repopulating cells were released, then the obtained repopulating cells were transferred to a freshly prepared medium to be re-suspended and maintained at single-cell state. Then 24 immunocompetent mice (C57BL/6, female, 6-8 weeks) were randomly selected and divided into three groups which were respectively low-dose group (1.0 μM), high-dose group (10 μM) and DMSO negative control group, with 8 mice per group. Subsequently, the mice were injected via the tail vein with 30,000 tumor-repopulating cells of melanoma to establish a B16-F1 metastatic melanoma model in the mouse. Subsequently, Mice were administered via tail vein injection based on the body weight and the blood volume of the mice. From the 5th day on, mice in the treatment group were administrated with WYC-209 once every 2 days at a blood concentration of 1.0 μM and 10 μM; mice in the DMSO group was administered with 0.1% DMSO in a same route of administration as negative control. At this time, there was no significant difference in the body weight between the groups, the mice were fed normally, observing the survival of the mice.

[7] = test system: tumor-repopulating cells of MDA-MB-435S melanoma; test: Inhibition of proliferation of tumor-repopulating cells, colony tumor volume in 3D fibrin gel; assay type: cell-based, human; details: MDA-MB-435S TRCs
Procedure: as §2, §3

[8] = test system: tumor-repopulating cells of A549 lung cancer; test: as above; assay type: cell-based, human; details: A549 TRCs
Procedure: as §2, §3

[9] = test system: tumor-repopulating cells of MCF-7 breast cancer; test: as above; assay type: cell-based, human; details: MCF-7 TRCs
Procedure: as §2, §3

[10] = test system: tumor-repopulating cells of Hs-746T gastric cancer; test: as above; assay type: cell-based, human; details: Hs-746T TRCs
Procedure: as §2, §3

SMILES: CCOC(=O)c1cnc(C#Cc2ccc3c(c2)C(C)(C)CC[S+]3[O-])nc1 (stereo not shown) [WYC-209, ethyl 2-((4,4-dimethyl-1-oxothiochroman-6-yl)ethynyl)pyrimidin-5-carboxylate]
- effect on proliferation of 3T3 mouse embryonic fibroblast cells [1]: did not affect the proliferation; also recorded: no effect on the growth of 3T3 cell clones
- induction of apoptosis of 3T3 mouse embryonic fibroblast cells [1]: did not induce apoptosis; also recorded: could not induce apoptosis
- inhibition at 10 µM ([2]; Mus musculus, B16-F1, 120 h, 10 μM, incubated 5 days, colony tumor size, read-out: Inhibition rate on TRCs of B16-F1 melanoma at a concentration of 10 μM (%)): 98.8%
- IC50 ([2]; Mus musculus, B16-F1, dose-response curve): 0.25 µM
- inhibition at 10 µM ([2]; Mus musculus, B16-F1, 10 μM (Table 3), read-out: Inhibition rate on TRCs of B16-F1 melanoma at a concentration of 10 μM/%): 98.8%
- IC50 ([2]; dose-response curve): 0.19 µM
- volume of tumor colony relative to None group ([3]; 1.0 μM): 25-30%
- volume of colony tumor relative to None group ([3]; 10 μM): less than 10%
- volume of tumor colony relative to None group ([4]; 1.0 μM): 25-30%
- volume of colony tumor relative to None group ([4]; 10 μM): less than 10%
- effect on proliferation of B16-F1 melanoma cells [5]: significantly block the growth
- induction of apoptosis of B16-F1 melanoma cells [5]: significant cell apoptosis
- abnormalities in the liver and stomach ([6]; 1.0 μM treatment group): no abnormalities found in the liver and stomach
- abnormalities in the liver and stomach ([6]; 10 μM treatment group): no abnormalities found in the liver and stomach
- mice that suffered pulmonary metastatic melanoma ([6]; 1.0 μM treatment group): 50%
- mice that suffered pulmonary metastatic melanoma ([6]; 10 μM treatment group): 12.5%
- efficiency of preventing metastasis of repopulating cells of melanoma to the lung ([6]; blood concentration 1.0 μM): 50%
- efficiency of preventing metastasis of repopulating cells of melanoma to the lung ([6]; blood concentration 10 μM): 87.5% and 87%
- toxic side effects ([6]; whole experiment): no obvious toxic side effects
- volume of tumor colony relative to None group ([7]; 1.0 μM): 25-30%
- volume of colony tumor relative to None group ([7]; 10 μM): less than 10%
- volume of tumor colony relative to None group ([8]; 1.0 μM): 25-30%
- volume of colony tumor relative to None group ([8]; 10 μM): less than 10%
- volume of tumor colony relative to None group ([9]; 1.0 μM): 25-30%
- volume of colony tumor relative to None group ([9]; 10 μM): less than 10%
- growth trend of colony tumor [10]: reverse the growth trend of colony tumor
- volume of tumor colony relative to None group ([10]; 1.0 μM): 25-30%
- volume of colony tumor relative to None group ([10]; 10 μM): less than 10%

Reference: patent US10556879B2, “Retinoid compound, preparation method therefor, intermediates thereof and application thereof” (SHANGHAI INSTITUTE OF ORGANIC CHEMISTRY, CHINESE ACADEMY OF …, priority 2016, dated 2020)
